Data from US20130004589A1, “DIVALENT CATION/ANION PAIR CONTAINING COMPOSITIONS AND METHODS FOR TREATING AND/OR PREVENTING ENZYMATIC IRRITATION” (priority 2011, published 2013).

Experiments:
trypsin [1] = test: EnzChek trypsin inhibition assay of zinc oxide/acid mixtures and zinc oxide formulations (Example 4); format: biochemical; conditions: Example 4 conclusions
Experimental: (§1) The objective of the following experiment was to determine whether and to what extent adding an acid to a formulation containing zinc oxide had on inhibition of trypsin activity in an in vitro assay. The inhibition of trypsin-induced cleavage of a fluorescent casein peptide was measured using the EnzChek™ protease assay kit, following manufacturer's instructions (EnzChek™ Protease Assay Kits Product Information, Revised; Molecular Probes, Eugene Oreg.). Briefly, mixtures of zinc oxide and acid at different concentrations were prepared in 1×PBS (pH 7.4) and their pH was recorded as listed in the Tables 5-8. Trypsin working solution (Sigma, St. Louis, Mo., unit/mL) was prepared in digestion buffer provided in the assay kit. Stock solution of BODIPY FL casein (trypsin substrate, mg/mL) was prepared by adding 0.2 mL to the substrate vials (provided in kit), and the final substrate working solution (10 microgram/mL) was prepared by dilution in digestion buffer (pH 7.8). Following incubation of the trypsin, with or without the test materials (50 μl), with the BODIPY fluorescent casein substrate, at room temperature for one hour, fluorescence was measured (excitation 485 nm/emission 530 nm) using a SpectraMax microtiter plate reader (Molecular Devices Corporation, Sunnyvale, Calif.) and Softmax Pro software (Molecular Devices Corporation). Each experiment was performed in three replicates.

trypsin [2] = test: EnzChek trypsin inhibition assay of talc mixed with divalent cation salts (Example 3); format: biochemical; conditions: for % synergistic activity relative to hypothetic additive value: Table 3, all materials 0.1% (g/mL)
Experimental: as §1, with “a divalent cation” for “an acid”, “talc inhibited” for “a formulation containing zinc oxide had on inhibition of”, “Briefly, mixtures of zinc oxide and acid at different concentrations were prepared in 1×PBS (pH 7.4) and their pH was recorded as listed in the Tables 5-8.” left out, “materials,” for “materials (50 μl),”

Row | Compound | % synergistic activity relative to hypothetic additive value (trypsin [2]) [%] | further results
1 | [O]=[Zn] [ZnO, zinc oxide] |  | trypsin inhibitory activity, result in words (trypsin [1]): minimal protease activity
2 | [Ca+2].[Cl-].[Cl-] [Calcium chloride] | −0.26 | 
3 | CC(=O)[O-].CC(=O)[O-].O.[Ca+2] [Calcium acetate monohydrate] | 3.10 | 
4 | [Cl-].[Cl-].[Mg+2] [Magnesium chloride] |  | trypsin inhibitory activity, result in words (trypsin [2]; Example 3, Table 4 conclusions): moderate to low levels
